Measured values as given in patent publication US20130072874A1, “DEVICE HAVING ARRAY PROVIDED WITH FINE PROTRUSIONS” (HISAMITSU PHARMACEUTICAL CO., INC., priority 2010, published 2013).

Tested on: shaved dorsal portion of each guinea pig
Test: Suppression of UVB-induced pigmentation, serum applied in advance then device
Type: in vivo
Settings: serum 80 μL (20 μL/cm^2) applied, then 150 μm array device; from the 4th day of device application onward
Procedure: A serum containing 4-(4-hydroxyphenyl)-2-butanol as an active ingredient solution was applied at 80 μL (20 μL/cm^2) to the shaved dorsal portion of each guinea pig, and then, a device having an array provided with microprotrusions was prepared for the purpose of stretching the skin by the microprotrusions of the array. The array was made of polylactic acid as a material and was of 150 μm as the length of the protrusions, 841 protrusions/cm^2 as the density of the protrusions, and 1 cm^2 as the area, and for a device, the array was fixed onto a covering member (holding member) prepared by stacking a rubber-based pressure-sensitive adhesive layer onto a support (3 cm×5 cm) made of nonwoven fabric.

SMILES: CC(O)CCc1ccc(O)cc1 (stereo not shown) [4-(4-hydroxyphenyl)-2-butanol]
- effect of suppressing pigmentation attributed to UVB irradiation: effect of suppressing pigmentation attributed to UVB irradiation was observed
